Experiments:
[1] = tested on: Human peripheral blood mononuclear (PBM) cells; experiment: PHA-stimulated lymphocyte proliferation (3H-thymidine uptake); type: cell-based; settings: Example 17
Source text: A lymphocyte cell culture system was used to examine the ability of various polypeptides and conjugates to mimic the ability of Apo E to inhibit lymphocyte differentiation as evidence by proliferation.
Human peripheral blood mononuclear (PBM) cells are isolated from whole blood on a Ficoll-Hypaque gradient. The collected PBMs are washed three times with fresh medium (RPMI-1640 plus 5% fetal bovine serum, glutamine, penicillin, streptomycin and HEPES buffer). After washing, the cells are counted and set at a density of 1×10^5 /ml. For culture, 0.2 ml of the cells are plated per well of a 96-well microtiter plate. The peptide or conjugate is added to the wells in a 50 ul volume that can be either filter or UV sterilized. The typical timing for this experiment is to expose the cells to the Apo E polypeptide or self-conjugate over night. PHA, the mitogen that stimulates lymphocyte growth and proliferation, is added the next day. Forty-eight hours after the addition of PHA, 1 uCi of ^3 H-thymidine is added per well in a 1 ul volume and 18-24 hours later the cells are harvested on a mash. The mash cell harvester functions to collect the cells on filter paper where they are washed with buffer to remove free ^3 H-thymidine. The filter papers are dried, put into scintillation vials with scintillation cocktail and the B emissions obtained. Each data point collected represents the average thymidine uptake in four wells, and the standard error was less than 10% for all data points.
Various concentrations of various Apo E peptide were added to cultures that contained 8×10^5 peripheral blood mononuclear cells per ml. The cells were cultured at 37C and RPMI with 5% serum. All cells were exposed to PHA at 24 hours, labeled with 3H-thymidine at 72 hours and harvested at 90 hours. The counts per minute (cpm) of 3H-thymidine in the harvested cells was measured, and the data are expressed as the mean of four wells per treatment as a measure of thymidine uptake (x 1000 cpm). The standard deviation was less than 10% for all means.

scavenger receptor = experiment: 125I-aLDL degradation by PMA-stimulated THP-1 cells; type: cell-based, human
Method: To verify that the inhibition of LDL degradation was specific for the LDL receptor, the effect of the tandem peptide on scavenger receptor processing of acetylated LDL (aLDL) was tested.
THP-1 cells (5×10^5 in 1.0ml of DMEM medium per 16 mm culture dish) were stimulated with PMA (10^-7 M) for 4 days. LDL was acetylated (Hara, H. et al., Biochem. Biophys. Res. Comm., 146(2):802-808, 1987) and then radio-labeled as described in Example 8 to a specific activity of 300-500 cpm/ng resulting in ^125 I-aLDL that was greater than 99% precipitable by 10% TCA. The cells were washed with PBS and the assay performed in DMEM medium supplemented with 1% Nutridoma-HU plus 25 μg/ml of ^125 I-aLDL. After 5 hr at 37° C., the supernatants were removed from the wells and extracted with 10% TCA. The B/B0 ratios were analyzed as described above. The results are depicted in FIG. 1B.

CC(C)C[C@H](NC(=O)[C@H](CC(=O)O)NC(=O)[C@H](CC(=O)O)NC(=O)[C@H](C)NC(=O)[C@H](CC(=O)O)NC(=O)[C@H](CCCNC(=N)N)NC(=O)[C@H](CC(C)C)NC(=O)[C@H](CC(C)C)NC(=O)[C@H](CCCNC(=N)N)NC(=O)[C@H](CCCCN)NC(=O)[C@H](CCCNC(=N)N)NC(=O)[C@H](CC(C)C)NC(=O)[C@H](CCCCN)NC(=O)[C@H](CCCNC(=N)N)NC(=O)[C@H](CC(C)C)NC(=O)[C@H](CC(C)C)NC(=O)[C@H](CC(=O)O)NC(=O)[C@H](CC(=O)O)NC(=O)[C@H](C)NC(=O)[C@H](CC(=O)O)NC(=O)[C@H](CCCNC(=N)N)NC(=O)[C@H](CC(C)C)NC(=O)[C@H](CC(C)C)NC(=O)[C@H](CCCNC(=N)N)NC(=O)[C@H](CCCCN)NC(=O)[C@H](CCCNC(=N)N)NC(=O)[C@H](CC(C)C)NC(=O)[C@H](CCCCN)NC(=O)[C@H](CCCNC(=N)N)NC(=O)[C@@H](N)CC(C)C)C(=O)O [p(141-155)2]
ED50 or dose of peptide required to inhibit lymphocyte proliferation 50% [1]: 20 µM
effect on 125I-aLDL degradation (scavenger receptor; listed as tandem apo E peptide): no effect
effect on 125I-aLDL degradation (scavenger receptor; listed as tandem peptide): Neither LDL or tandem peptide inhibited
